# Measurements as given in paper PMC7602804 (Nutrients, 2020).
# “Also recorded” adds a separate entry of the source. No end group written: not given here.
# Columns and labels:
# Caco-2 monolayer = experiment: Passive permeability (Papp) of mannitol across Caco-2 monolayers, membrane integrity; format: in vitro ADME, human; conditions: D-[1-14C]-Mannitol 3.5 µM, 56.8 mCi/mmol, apical, with or without milk peptides; A-B; 2.5 h; HBSS + 10 mM HEPES; liquid scintillation counting; mean ± standard deviation of four or five inserts
# Description: (§1) The Caco-2 cells used for transport studies were seeded in polyethylene terephthalate culture inserts, with a pore size of 0.4 μm and a growth area of 0.33 cm^2 at a density of approximately 25,000 cells/insert. The Caco-2 cells were grown for three weeks on the porous membrane before they were used for transepithelial transport. The integrity of the monolayers was confirmed by measuring the TEER using a Millicell ERS-2 volt ohmmeter. Only Caco-2 monolayers with TEER values above 400 Ω cm^2 were used for the transport analysis.
# (§2) Following the TEER value measurement, the Caco-2 and PBEC monolayers were gently washed twice with phosphate-buffered saline, and the transport medium (Hanks’ Balanced Salt solution supplemented with 10 mM of HEPES) was added to the apical and basolateral compartments. […] Basolateral samples were mixed with Ultima Gold liquid scintillation fluid (Perkin Elmer) and counted in a Tri-Carb 2810 TR scintillation counter (Perkin Elmer). The apparent permeability coefficient (Papp, cm/s) was determined as Papp = (dQ/dt)/(AC0) where dQ/dt is the steady state flux (cpm/s), A is the surface area of the cell culture insert membrane and C0 is the initial concentration in the apical compartment (cpm/mL). […]
# [1] = test system: PBEC monolayer (BBB model); experiment: Passive permeability (Papp) of mannitol across PBEC monolayers, membrane integrity; format: in vitro ADME, porcine; conditions: D-[1-14C]-Mannitol 3.5 µM, 56.8 mCi/mmol, apical, with or without milk peptides; A-B; 2.5 h; HBSS + 10 mM HEPES; liquid scintillation counting; mean ± standard deviation of four or five inserts
# Description: PBECs were grown until 70–80% confluency as described above and then passaged onto polyester culture inserts with a pore size of 0.4 μm and a growth area of 1.12 cm^2 (Costar, Corning, NY, USA) at a density of 1.1 × 10^5 cells/cm^2 in the PBEC growth medium. In the basolateral chamber, the medium consisted of 1 mL of PBEC growth medium and 0.5 mL of astrocyte conditioned medium. The medium was supplemented with differentiation factors: 550 nM of hydrocortisone, 250 μM of 8-(4-chlorophenylthio)adenosine-3′,5′-cyclic monophosphate (cAMP) and 17.5 μM of RO-201724 two days after seeding. The next day, the integrity of the PBEC monolayer was confirmed by measuring the TEER. […]
# as §2
# Caco-2 monolayers [2] = test system: Caco-2 monolayers; parameters: method as in PMID 20397193, PMID 23561097; conditions: Caco-2 monolayer; cited from earlier work
# [3] = test system: porcine brain endothelial cell (PBEC) monolayers; experiment: Apical to basolateral transport of milk peptides across porcine brain endothelial cell (PBEC) monolayers, blood-brain barrier model; format: in vitro ADME; conditions: primary PBEC on polyester inserts 0.4 μm, astrocyte conditioned medium, TEER higher than 800 Ω cm^2; A-B; mix of 192 milk peptides 0.1 mg/mL apical; HBSS + 10 mM HEPES; 2.5 h; LC-MS/MS; five independent studies; αS1 peptide 'or' its truncated peptides stated collectively
# Description: Capillaries were isolated from the brain cortices of domestic pigs 5–6 months old as previously described. PBECs were cultured by plating the capillaries in T75 flasks coated with collagen IV (500 µg/mL) and fibronectin (100 µg/mL) in DMEM-F12 medium, supplemented with 10% plasma-derived serum (First Link, Wolverhampton, UK), heparin (15 U), 100 units/mL of penicillin and 100 µg/mL of streptomycin (PBEC growth medium), and cultured in an incubator with humidified 5% CO2/95% air at 37 °C. Puromycin (4 µg/mL) was added to the growth medium for the first three days to obtain a pure culture of PBECs.
# Astrocyte conditioned medium was collected every third day from primary rat astrocytes, sterile filtered and frozen until use. Isolation of primary rat astrocytes and preparation of astrocyte conditioned media were carried out as described in [20].
# PBECs were grown until 70–80% confluency as described above and then passaged onto polyester culture inserts with a pore size of 0.4 μm and a growth area of 1.12 cm^2 (Costar, Corning, NY, USA) at a density of 1.1 × 10^5 cells/cm^2 in the PBEC growth medium. In the basolateral chamber, the medium consisted of 1 mL of PBEC growth medium and 0.5 mL of astrocyte conditioned medium. The medium was supplemented with differentiation factors: 550 nM of hydrocortisone, 250 μM of 8-(4-chlorophenylthio)adenosine-3′,5′-cyclic monophosphate (cAMP) and 17.5 μM of RO-201724 two days after seeding. The next day, the integrity of the PBEC monolayer was confirmed by measuring the TEER. Only PBEC monolayers with TEER values higher than 800 Ω cm^2 were used for the transport analysis.
# (§3) Following the TEER value measurement, the Caco-2 and PBEC monolayers were gently washed twice with phosphate-buffered saline, and the transport medium (Hanks’ Balanced Salt solution supplemented with 10 mM of HEPES) was added to the apical and basolateral compartments. The inserts were incubated for 15 min or 2.5 h with the purified milk peptides (0.1 mg/mL) or the synthetic PIGSENSEKTTMPLW peptide (2 µg/mL), after which medium from the apical and basolateral compartments were collected for liquid chromatography tandem mass spectrometry (LC-MS/MS) analysis. Inserts incubated with a medium without peptides served as the control in the transport experiments. Membrane integrity was validated by addition of D-[1-^14C]-Mannitol (3.5 µM, 56.8 mCi/mmol) (Perkin Elmer, Waltham, MA, USA) to the upper chamber of the culture inserts with or without milk peptides for 2.5 h. The passive permeability experiments were performed on four or five individual culture inserts. Basolateral samples were mixed with Ultima Gold liquid scintillation fluid (Perkin Elmer) and counted in a Tri-Carb 2810 TR scintillation counter (Perkin Elmer). The apparent permeability coefficient (Papp, cm/s) was determined as Papp = (dQ/dt)/(AC0) where dQ/dt is the steady state flux (cpm/s), A is the surface area of the cell culture insert membrane and C0 is the initial concentration in the apical compartment (cpm/mL).
# LC-MS/MS analysis was performed on a TripleTOF 6600 mass spectrometer equipped with an Exigent nanoLC 415 system (AB Sciex, Les Ulis, France). All samples were micro-purified using 3 M Empore C18 discs packed in pipette tips. The lyophilized samples were dissolved in 0.1% formic acid, injected on a trap column (2 cm × 100 µm inner diameter) and separated on an analytical column packed in-house in a pulled emitter (15 cm × 75 µm inner diameter). All columns were packed with ReproSil-Pur C18-AQ 3 µm resin (courtesy of Dr. Marisch, Ammerbuch-Entringen, Germany). […]
# Caco-2 monolayers [4] = experiment: Apical to basolateral transport of milk peptides across Caco-2 monolayers (LC-MS/MS of basolateral medium); format: in vitro ADME, human; conditions: Caco-2, 3 weeks on PET inserts 0.4 μm, TEER above 400 Ω cm^2; A-B; mix of 192 purified milk peptides 0.1 mg/mL apical; HBSS + 10 mM HEPES; 2.5 h; LC-MS/MS of basolateral medium; identified in two out of three experiments
# Description: The human colorectal adenocarcinoma cell line, Caco-2, was obtained from DSMZ (Braunschweig, Germany). The cells were grown to 50–60% confluence in Dulbecco’s Modified Eagle Medium (DMEM) Glutamax cell culture medium, supplemented with 10% heat-inactivated fetal bovine serum, 100 units/mL of penicillin and 100 μg/mL of streptomycin (all from Invitrogen, Carlsbad, CA, USA) in a humidified 5% CO2/95% air atmosphere at 37 °C. The cells used in the experiments were between passages 30 and 40.
# as §1, §3
# LC-MS/MS analysis was performed on a TripleTOF 6600 mass spectrometer equipped with an Exigent nanoLC 415 system (AB Sciex, Les Ulis, France). All samples were micro-purified using 3 M Empore C18 discs packed in pipette tips. The lyophilized samples were dissolved in 0.1% formic acid, injected on a trap column (2 cm × 100 µm inner diameter) and separated on an analytical column packed in-house in a pulled emitter (15 cm × 75 µm inner diameter). All columns were packed with ReproSil-Pur C18-AQ 3 µm resin (courtesy of Dr. Marisch, Ammerbuch-Entringen, Germany). Peptides were eluted directly into the mass spectrometer with a linear gradient from 5 to 35% solvent B (0.1% formic acid in acetonitrile) for 20 min with a flowrate of 250 nL/min, followed after 10 min with 100% solvent B. Data files were converted to Mascot Generic Format using the Raw Converter (version 1.1.0.18) (http://fields.scripps.edu/rawconv/) or the AB Sciex MS Data Converter beta 1.1 (AB Sciex, Les Ulis, France). The generated peak lists were searched against the Bos taurus proteome (UniProt database, https://www.uniprot.org)) using an in-house Mascot search engine (Matrix Science, London, UK). The searches were made without specifying a protease and with oxidation (Met) and phosphorylation (ST) as variable modifications. Peptide tolerance was set to 10 ppm and MS/MS tolerance was set to 0.2 Da. […]
# [5] = test system: angiotensin-converting enzyme (ACE); conditions: potential anti-hypertensive peptides; cited from earlier work
# Excerpt: The ACE-inhibitory ability is presumably mediated through the derived fragments TTMPLW and KTTMP [36, 37]. Thus, the transport of this peptide across physiological barriers could influence the regulation of arterial blood pressure. Furthermore, ACE is present in the brain and plays a key role in high salt induced sympatho-excitation, hypertension, neuroprotection, cognition and cerebr ...
# [6] = test system: pepsin from porcine gastric mucosa, then trypsin and chymotrypsin from a bovine pancreas and elastase; experiment: purified milk peptide mix: pepsin in 0.15 M NaCl pH 2.5 (1:100 w/w), then trypsin, chymotrypsin (1:100 w/w) and elastase (1:500 w/w) in 50 mM ammonium bicarbonate pH 7.6; conditions: 37 °C, up to 60 min
# [7] = primary porcine brain endothelial cell (PBEC) monolayers in culture inserts; transport medium (Hanks' Balanced Salt solution supplemented with 10 mM of HEPES); basolateral medium analysed; conditions: up to 2.5 h
# [8] = test system: pepsin from porcine gastric mucosa, then trypsin and chymotrypsin from a bovine pancreas and elastase; experiment: synthetic peptide: pepsin in 0.15 M NaCl pH 2.5 (1:100 w/w, 60 min), then trypsin, chymotrypsin (1:100 w/w) and elastase (1:500 w/w) in 50 mM ammonium bicarbonate pH 7.6; conditions: 37 °C, up to 270 min
# [9] = Caco-2 monolayers in culture inserts; transport medium (Hanks' Balanced Salt solution supplemented with 10 mM of HEPES); basolateral medium analysed; conditions: human, up to 2.5 h
molecule,measurement,setting,value
OC[C@@H](O)[C@@H](O)[C@H](O)[C@H](O)CO [D-[1-^14C]-Mannitol],Apparent permeability coefficient (Papp) of the Caco-2 monolayer,Caco-2 monolayer,9.45 ± 2 × 10^−7 cm s^−1
same,Papp for the BBB (PBEC monolayer),[1],1.09 ± 0.14 × 10^−6 cm s^−1
EPVLGPVRGPFPIIV [EPVLGPVRGPFPIIV],Crossing of in vitro intestinal barrier models in other studies,Caco-2 monolayers [2],shown to cross over in vitro intestinal barrier models
same,Peptide identified in the basal compartment (brain side) of the PBEC BBB model (transported),[3],identified in the basal compartment of the BBB model
same,Peptide identified in the basolateral chamber of Caco-2 monolayers (transported),Caco-2 monolayers [4],not transported across the Caco-2 monolayers
IGSENSEKTTMP [truncated derivative of the αS1-casein peptide …],Inhibition of the activity of angiotensin-converting enzyme (ACE),[5],can inhibit the activity of angiotensin-converting enzyme
same,Peptide identified in the basal compartment (brain side) of the PBEC BBB model (transported),[3],identified in all experiments
PIGSENSEKTTMPLW,not cleaved,[6],peptide ion still observed after pepsin and pancreatic enzyme digestion
same,fragment found,[7],"PIGSENSEKTTMP (Mox), 2.5 h; also recorded: PIGSENSEKTT, 2.5 h"
same,not cleaved,[8],ion corresponding to the peptide observed even after 270 min of digestion
same,fragment found,[9],"PIGSENSEKTTMP (Mox), 2.5 h; also recorded: PIGSENSEKTT, 2.5 h"
